What was measured:
[1] = molecular target: T1, Human Factor XIIa (hFXIIa) (Homo sapiens, UniProt P00748); experiment: Determination of Human Factor XIIa (hFXIIa) inhibition, fluorogenic substrate IC50 assay; type: biochemical; settings: fluorogenic substrate H-DPro-Phe-Arg-AFC at Km, 25° C., read-out: Human FXIIa IC50
T1 construct: purchased Enzyme Research Laboratories
T1 sequence (P00748 373-615 limits assumed): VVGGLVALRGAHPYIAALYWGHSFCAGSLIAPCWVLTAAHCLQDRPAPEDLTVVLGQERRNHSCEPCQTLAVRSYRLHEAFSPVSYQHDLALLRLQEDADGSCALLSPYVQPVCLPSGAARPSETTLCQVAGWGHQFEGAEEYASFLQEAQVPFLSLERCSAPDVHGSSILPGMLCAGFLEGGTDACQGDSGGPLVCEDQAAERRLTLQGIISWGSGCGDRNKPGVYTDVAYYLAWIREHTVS
T1 sequence (P00748 20-372 partner limits assumed): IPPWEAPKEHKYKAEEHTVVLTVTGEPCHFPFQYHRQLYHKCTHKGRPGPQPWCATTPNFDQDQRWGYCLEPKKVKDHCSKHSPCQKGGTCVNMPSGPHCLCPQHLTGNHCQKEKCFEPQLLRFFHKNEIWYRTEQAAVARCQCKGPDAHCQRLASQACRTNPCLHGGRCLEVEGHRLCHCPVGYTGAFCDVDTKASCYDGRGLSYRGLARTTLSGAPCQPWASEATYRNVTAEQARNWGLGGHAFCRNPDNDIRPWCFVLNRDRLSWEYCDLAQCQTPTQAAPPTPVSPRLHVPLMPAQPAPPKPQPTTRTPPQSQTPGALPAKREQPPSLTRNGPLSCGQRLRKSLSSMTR
Method: Determination of Human Factor XIIa (hFXIIa) inhibition
The Km for the cleavage of the substrate by hFXIIa was determined by standard transformation of the Michaelis-Menten equation, with subsequent inhibition assays performed at substrate Km concentration.

FXa = FXa (Homo sapiens, UniProt P00742); experiment: Related protease inhibition: FXa, fluorogenic substrate; type: biochemical; settings: fluorogenic substrate at Km, 25° C.; H1-H3 = % activity at 40 μM
Method: Human serine protease enzyme Plasma Kallikrein, KLK1, FXa, Plasmin, Thrombin and Trypsin were assayed for enzymatic activity using an appropriate fluorogenic substrate at Km concentration, FXIa at fixed substrate concentration of 100 μM and various concentrations of the test compound.

Sequence of FXa (P00742 235-488 limits assumed): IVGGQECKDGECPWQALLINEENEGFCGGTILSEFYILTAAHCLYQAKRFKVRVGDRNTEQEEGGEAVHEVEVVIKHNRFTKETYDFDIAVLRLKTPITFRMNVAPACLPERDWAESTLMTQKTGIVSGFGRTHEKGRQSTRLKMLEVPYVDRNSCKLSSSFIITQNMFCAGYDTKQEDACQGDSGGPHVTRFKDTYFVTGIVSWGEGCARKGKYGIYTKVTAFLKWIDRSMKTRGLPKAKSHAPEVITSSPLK
Sequence of FXa (P00742 41-179 partner limits assumed): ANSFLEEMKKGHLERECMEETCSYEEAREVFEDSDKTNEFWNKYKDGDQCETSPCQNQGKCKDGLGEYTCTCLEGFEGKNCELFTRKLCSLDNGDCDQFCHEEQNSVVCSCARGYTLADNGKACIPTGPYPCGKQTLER

For `Cc1ncccc1CNC(=O)c1nn(-c2cccc(Cl)c2)c2c1CCN(c1ccc3c(c1)C(=O)N(C)CC3)C2=O` [Example 1309, 1-(3-chlorophenyl)-6-(2-methyl-1-oxo-1,2,3,4-tetrahydroisoquinolin-7-yl)-N-((2-methylpyridin-3-yl)methyl)-7-oxo-4,5,6,7-tetrahydro-1H-pyrazolo[3,4-c]pyridine-3-carboxamide], the IC50 [1] was 100 to 300 nM and the IC50 (FXa) was greater than 40000 nM.
Work on `Cc1ccnnc1CNC(=O)c1nn(-c2cccc(Cl)c2)c2c1CCN(c1ccc3c(c1)C(=O)N(C)CC3)C2=O` [Example 1310, 1-(3-chlorophenyl)-6-(2-methyl-1-oxo-1,2,3,4-tetrahydroisoquinolin-7-yl)-N-((4-methylpyridazin-3-yl)methyl)-7-oxo-4,5,6,7-tetrahydro-1H-pyrazolo[3,4-c]pyridine-3-carboxamide] yielded an IC50 [1] of 300 to 1000 nM and an IC50 (FXa) of 10000 to 40000 nM.
With `CC(=O)N1CCCc2ccc(N3CCc4c(C(=O)NCc5cnccc5C)nn(-c5cccc(Cl)c5)c4C3=O)cc21` [Example 1314, 6-(1-acetyl-1,2,3,4-tetrahydroquinolin-7-yl)-1-(3-chlorophenyl)-N-((4-methylpyridin-3-yl)methyl)-7-oxo-4,5,6,7-tetrahydro-1H-pyrazolo[3,4-c]pyridine-3-carboxamide] the IC50 [1] was 100 to 300 nM and the IC50 (FXa) was 10000 to 40000 nM.
`CCN1CCOc2ccc(N3CCc4c(C(=O)NCc5cc(C)n(C)n5)nn(-c5cccc(Cl)c5)c4C3=O)cc2C1=O` [Example 1317, 1-(3-chlorophenyl)-N-((1,5-dimethyl-1H-pyrazol-3-yl)methyl)-6-(4-ethyl-5-oxo-2,3,4,5-tetrahydrobenzo[f][1,4]oxazepin-7-yl)-7-oxo-4,5,6,7-tetrahydro-1H-pyrazolo[3,4-c]pyridine-3-carboxamide] gave an IC50 [1] of 10 to 100 nM and an IC50 (FXa) of 3000 to 10000 nM.
`CCN1CCOc2ccc(N3CCc4c(C(=O)NCc5cnccc5C)nn(-c5cccc(Cl)c5)c4C3=O)cc2C1=O` [Example 1318, 1-(3-chlorophenyl)-6-(4-ethyl-5-oxo-2,3,4,5-tetrahydrobenzo[f][1,4]oxazepin-7-yl)-N-((4-methylpyridin-3-yl)methyl)-7-oxo-4,5,6,7-tetrahydro-1H-pyrazolo[3,4-c]pyridine-3-carboxamide] was tested, and the IC50 [1] was 10 to 100 nM and the IC50 (FXa) was 3000 to 10000 nM.
Work on `Cc1cc(CNC(=O)c2nn(-c3cccc(Cl)c3)c3c2CCN(c2ccc4c(c2)C(=O)N(C)CCO4)C3=O)nn1C` [Example 1319, 1-(3-chlorophenyl)-N-((1,5-dimethyl-1H-pyrazol-3-yl)methyl)-6-(4-methyl-5-oxo-2,3,4,5-tetrahydrobenzo[f][1,4]oxazepin-7-yl)-7-oxo-4,5,6,7-tetrahydro-1H-pyrazolo[3,4-c]pyridine-3-carboxamide] yielded an IC50 [1] of 10 to 100 nM and an IC50 (FXa) of 1000 to 3000 nM.
`Cc1cc(CNC(=O)c2nn(-c3cccc(Cl)c3)c3c2CCN(c2ccc4c(c2)C(=O)N(C(C)C)CCO4)C3=O)nn1C` [Example 1320, 1-(3-chlorophenyl)-N-((1,5-dimethyl-1H-pyrazol-3-yl)methyl)-6-(4-isopropyl-5-oxo-2,3,4,5-tetrahydrobenzo[f][1,4]oxazepin-7-yl)-7-oxo-4,5,6,7-tetrahydro-1H-pyrazolo[3,4-c]pyridine-3-carboxamide] showed an IC50 [1] of 100 to 300 nM and an IC50 (FXa) greater than 40000 nM.
With `Cc1cc(CNC(=O)c2nn(-c3cccc(Cl)c3)c3c2CCN(c2ccc4c(c2)C(=O)N(CC(N)=O)CC4)C3=O)n[nH]1` [Example 1321, 6-(2-(2-amino-2-oxoethyl)-1-oxo-1,2,3,4-tetrahydroisoquinolin-7-yl)-1-(3-chlorophenyl)-N-((5-methyl-1H-pyrazol-3-yl)methyl)-7-oxo-4,5,6,7-tetrahydro-1H-pyrazolo[3,4-c]pyridine-3-carboxamide] the IC50 [1] was 10 to 100 nM and the IC50 (FXa) was 1000 to 3000 nM.
`COC(=O)C(NC(=O)c1nn(-c2cccc(Cl)c2)c2c1CCN(c1ccc3c(c1)C(=O)N(C)CC3)C2=O)c1cccnc1` (centres unmarked) [Example 1325, methyl 2-(1-(3-chlorophenyl)-6-(2-methyl-1-oxo-1,2,3,4-tetrahydroisoquinolin-7-yl)-7-oxo-4,5,6,7-tetrahydro-1H-pyrazolo[3,4-c]pyridine-3-carboxamido)-2-(pyridin-3-yl)acetate] gave an IC50 [1] of 100 to 300 nM and an IC50 (FXa) of 1000 to 3000 nM.
With `Cc1ccnc(C)c1CNC(=O)c1nn(-c2cccc(Cl)c2)c2c1CCN(c1ccc3c(c1)C(=O)N(CCO)CC3)C2=O` [Example 1326, 1-(3-chlorophenyl)-N-((2,4-dimethylpyridin-3-yl)methyl)-6-(2-(2-hydroxyethyl)-1-oxo-1,2,3,4-tetrahydroisoquinolin-7-yl)-7-oxo-4,5,6,7-tetrahydro-1H-pyrazolo[3,4-c]pyridine-3-carboxamide] the IC50 [1] was 100 to 300 nM and the IC50 (FXa) was greater than 40000 nM.
In the case of `Cc1ccncc1C(C)NC(=O)c1nn(-c2cccc(Cl)c2)c2c1CCN(c1ccc3c(c1)C(=O)N(CCO)CC3)C2=O` (centres unmarked) [Example 1327, 1-(3-chlorophenyl)-6-(2-(2-hydroxyethyl)-1-oxo-1,2,3,4-tetrahydroisoquinolin-7-yl)-N-(1-(4-methylpyridin-3-yl)ethyl)-7-oxo-4,5,6,7-tetrahydro-1H-pyrazolo[3,4-c]pyridine-3-carboxamide], the IC50 [1] is reported as 100 to 300 nM and the IC50 (FXa) is reported as greater than 40000 nM.
In the case of `CN1CCc2ccc(N3CCc4c(C(=O)NC(C(=O)O)c5cccnc5)nn(-c5cccc(Cl)c5)c4C3=O)cc2C1=O` (centres unmarked) [Example 1328, 2-(1-(3-chlorophenyl)-6-(2-methyl-1-oxo-1,2,3,4-tetrahydroisoquinolin-7-yl)-7-oxo-4,5,6,7-tetrahydro-1H-pyrazolo[3,4-c]pyridine-3-carboxamido)-2-(pyridin-3-yl)acetic acid], the IC50 [1] is reported as 300 to 1000 nM and the IC50 (FXa) is reported as 3000 to 10000 nM.
In the case of `Cc1cc(CNC(=O)c2nn(-c3cccc(Cl)c3)c3c2CCN(c2ccc4c(c2)C(=O)N(CCO)[C@H](C)CO4)C3=O)nn1C` [Example 1329, (R)-1-(3-chlorophenyl)-N-((1,5-dimethyl-1H-pyrazol-3-yl)methyl)-6-(4-(2-hydroxyethyl)-3-methyl-5-oxo-2,3,4,5-tetrahydrobenzo[f][1,4]oxazepin-7-yl)-7-oxo-4,5,6,7-tetrahydro-1H-pyrazolo[3,4-c]pyridine-3-carboxamide], the IC50 [1] is reported as 300 to 1000 nM and the IC50 (FXa) is reported as greater than 4000 nM.
Molecule `O=C(O)CN1CCc2ccc(N3CCc4c(C(=O)NCC5CC5)nn(-c5cccc(Cl)c5)c4C3=O)cc2C1=O` [Example 1330, 2-(7-(1-(3-chlorophenyl)-3-((cyclopropylmethyl)carbamoyl)-7-oxo-1,4,5,7-tetrahydro-6H-pyrazolo[3,4-c]pyridin-6-yl)-1-oxo-3,4-dihydroisoquinolin-2(1H)-yl)acetic acid] has an IC50 [1] of 1000 to 3000 nM and an IC50 (FXa) greater than 40000 nM.
Molecule `Cc1cc(CNC(=O)c2nn(-c3cccc(Cl)c3)c3c2CCN(c2ccc4c(c2)C(=O)N(CC(=O)O)CC4)C3=O)nn1C` [Example 1331, 2-(7-(1-(3-chlorophenyl)-3-(((1,5-dimethyl-1H-pyrazol-3-yl)methyl)carbamoyl)-7-oxo-1,4,5,7-tetrahydro-6H-pyrazolo[3,4-c]pyridin-6-yl)-1-oxo-3,4-dihydroisoquinolin-2(1H)-yl)acetic acid] has an IC50 [1] of 300 to 1000 nM and an IC50 (FXa) greater than 4000 nM.
With `Cc1cc(CNC(=O)c2nn(-c3cccc(Cl)c3)c3c2CCN(c2ccc4c(c2)C(=O)N(CC(=O)O)CC4)C3=O)n[nH]1` [Example 1332, 2-(7-(1-(3-chlorophenyl)-3-(((5-methyl-1H-pyrazol-3-yl)methyl)carbamoyl)-7-oxo-1,4,5,7-tetrahydro-6H-pyrazolo[3,4-c]pyridin-6-yl)-1-oxo-3,4-dihydroisoquinolin-2(1H)-yl)acetic acid] the IC50 [1] was 300 to 1000 nM and the IC50 (FXa) was greater than 4000 nM.
`NC(=O)CN1CCc2ccc(N3CCc4c(C(=O)NCC5CC5)nn(-c5cccc(Cl)c5)c4C3=O)cc2C1=O` [Example 1333, 6-(2-(2-amino-2-oxoethyl)-1-oxo-1,2,3,4-tetrahydroisoquinolin-7-yl)-1-(3-chlorophenyl)-N-(cyclopropylmethyl)-7-oxo-4,5,6,7-tetrahydro-1H-pyrazolo[3,4-c]pyridine-3-carboxamide] showed an IC50 [1] of 300 to 1000 nM and an IC50 (FXa) greater than 4000 nM.
Work on `CNC(=O)c1nn(-c2cccc(Cl)c2)c2c1CCN(c1ccc3c(c1)C(=O)N(C)CC3)C2=O` [Example 1334, 1-(3-chlorophenyl)-N-methyl-6-(2-methyl-1-oxo-1,2,3,4-tetrahydroisoquinolin-7-yl)-7-oxo-4,5,6,7-tetrahydro-1H-pyrazolo[3,4-c]pyridine-3-carboxamide] yielded an IC50 [1] of 300 to 1000 nM and an IC50 (FXa) greater than 40000 nM.
Work on `CN1CCc2ccc(N3CCc4c(C(=O)N5CCC5)nn(-c5cccc(Cl)c5)c4C3=O)cc2C1=O` [Example 1335, 7-(3-(azetidine-1-carbonyl)-1-(3-chlorophenyl)-7-oxo-1,4,5,7-tetrahydro-6H-pyrazolo[3,4-c]pyridin-6-yl)-2-methyl-3,4-dihydroisoquinolin-1(2H)-one] yielded an IC50 [1] of 1000 to 3000 nM and an IC50 (FXa) greater than 40000 nM.

Reference: patent publication US20260132132A1, “3A,4,5,6-TETRAHYDRO-1 H-PYRAZOLO[3,4-C]PYRIDIN-7(7AH)-ONE DERIVATIVES AS FACTOR XIIA INHIBITORS” (KALVISTA PHARMACEUTICALS LIMITED, priority 2022, published 2026)
